# Reference: patent US7153876B2, “Malonamid and malonamic ester derivatives with antithrombotic activity, their preparation, and their use” (Sanofi-Aventis Deutschland GmbH, priority 2000, dated 2006)
# Molecular target: T1, human factor VIIa and TF (factor VIIa/TF) (Homo sapiens, UniProt P08709)
# T1 construct: human factor VIIa and TF (5 nM and 10 nM, respective final concentration)
# Assay: Factor VIIa (FVIIa) chromogenic assay
# Assay type: biochemical
# Conditions: inhibition constant towards factor VIIa/TF activity; chromogenic substrate S-2288 500 μM; 25° C.; 15 minute preincubation; factor VIIa 5 nM, TF 10 nM
# Method: The ability of compounds of formula I to inhibit factor VIIa or other enzymes like factor Xa, thrombin, plasmin, or trypsin can be assessed by determining the concentration of the compound of formula I that inhibits enzyme activity by 50%, i.e., the IC50 value, which is related to the inhibition constant Ki. Purified enzymes are used in chromogenic assays. The concentration of inhibitor that causes a 50% decrease in the rate of substrate hydrolysis is determined by linear regression after plotting the relative rates of hydrolysis (compared to the uninhibited control) versus the log of the concentration of the compound of formula I. For calculating the inhibition constant Ki, the IC50 value is corrected for competition with substrate using the formula Ki=IC50/[1+(substrate concentration/Km)] wherein Km is the Michaelis-Menten constant (Chen and Prusoff, Biochem. Pharmacol. 22 (1973), 3099-3108; I. H. Segal, Enzyme Kinetics, 1975, John Wiley & Sons, New York, 100–125; which are incorporated herein by reference). Factor VIIa (FVIIa) Assay:
# The inhibitory activity (expressed as inhibition constant Ki (FVIIa)) of compounds of formula I towards factor VIIa/TF activity was determined using a chromogenic assay essentially as described previously (J. A. Ostrem et al., Biochemistry 37 (1998) 1053–1059, which is incorporated herein by reference). Kinetic assays were conducted at 25° C. in half-area microtiter plates (Costar Corp., Cambridge, Mass.) using a kinetic plate reader (Molecular Devices Spectramax 250). A typical assay consisted of 25 μl human factor VIIa and TF (5 nM and 10 nM, respective final concentration) combined with 40 μl of inhibitor dilutions in 10% DMSO/TBS-PEG buffer (50 mM Tris, 15 mM NaCl, 5 mM CaCl2, 0.05% PEG 8000, pH 8.15). Following a 15 minute preincubation period, the assay was initiated by the addition of 35 μl of the chromogenic substrate S-2288 (D-IIe-Pro-Arg-p-nitroanilide, Pharmacia Hepar Inc., 500 μM final concentration).
# T1 sequence (P08709 61-212 limits assumed): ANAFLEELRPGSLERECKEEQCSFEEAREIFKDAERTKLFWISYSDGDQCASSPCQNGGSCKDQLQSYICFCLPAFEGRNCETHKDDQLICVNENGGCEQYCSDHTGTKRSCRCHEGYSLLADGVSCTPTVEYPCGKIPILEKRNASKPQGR
# T1 sequence (P08709 213-466 limits assumed): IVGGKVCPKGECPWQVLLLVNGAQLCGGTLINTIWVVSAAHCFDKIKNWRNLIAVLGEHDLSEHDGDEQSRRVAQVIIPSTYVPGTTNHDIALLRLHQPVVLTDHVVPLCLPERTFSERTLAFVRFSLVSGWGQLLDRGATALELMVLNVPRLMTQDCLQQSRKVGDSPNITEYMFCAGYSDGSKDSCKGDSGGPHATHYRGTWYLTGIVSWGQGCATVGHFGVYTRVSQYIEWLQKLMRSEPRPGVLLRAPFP
# T1 sequence (P13726 33-295 partner): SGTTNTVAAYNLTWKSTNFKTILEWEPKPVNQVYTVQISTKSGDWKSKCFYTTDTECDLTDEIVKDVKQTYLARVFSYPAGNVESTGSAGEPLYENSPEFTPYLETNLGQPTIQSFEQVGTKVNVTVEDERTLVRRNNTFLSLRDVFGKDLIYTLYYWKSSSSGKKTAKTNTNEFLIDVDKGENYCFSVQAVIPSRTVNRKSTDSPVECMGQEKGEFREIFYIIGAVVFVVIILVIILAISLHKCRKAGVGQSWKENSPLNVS
row,SMILES,Ki
1,COc1ccc2c(c1)C[C@@H](NC(=O)C(C(=O)Nc1ccc(C(=N)N)cc1)c1ccccc1)CC2 (stereo partly drawn) [Example 8],7.12 µM
2,C[C@H](NC(=O)C(CCc1ccccc1)C(=O)Nc1ccc(C(=N)N)cc1)c1ccc2ccccc2c1 (stereo partly drawn) [Example 42],17.1 µM
3,N#CC(NC(=O)C(C(=O)Nc1ccc(C(=N)N)cc1)c1ccccc1)c1ccccc1 (stereo not drawn) [Example 6],3.82 µM
4,N=C(N)c1ccc(NC(=O)C(C(=O)NCc2ccc(-c3csnn3)cc2)c2ccccc2)cc1 (stereo not drawn) [Example 28],6.02 µM
5,"N=C(N)c1ccc(NC(=O)C(C(=O)OCc2ccccc2)c2ccccc2)cc1 (stereo not drawn) [Example 1, N-(4-Carbamimidoyl-Phenyl)-2-Phenyl-Malonamic Acid Benzyl Ester]",14 µM
6,N=C(N)c1ccc(NC(=O)C(C(=O)NCc2c(Cl)cccc2Oc2ccccc2)c2ccccc2)cc1 (stereo not drawn) [Example 17],6.62 µM
7,COc1ccc(CNC(=O)C(C(=O)Nc2ccc(C(=N)N)cc2)c2ccccc2)cc1OC (stereo not drawn) [Example 38],17.4 µM
8,N=C(N)c1ccc(NC(=O)C(C(=O)NCc2cccc([N+](=O)[O-])c2)c2ccccc2)cc1 (stereo not drawn) [Example 35],3.01 µM

# These reach a lower Ki. Values come first.
row,Ki,SMILES
1,2.81 µM,N=C(N)c1ccc(NC(=O)C(CCc2ccccc2)C(=O)NCc2ccccc2)cc1 (stereo not drawn) [Example 40]
2,0.381 µM,COc1ccc([C@H](C)NC(=O)C(C(=O)Nc2ccc(C(=N)N)cc2)c2ccccc2)cc1 (stereo partly drawn) [Example 26]
3,0.376 µM,C[C@H](NC(=O)CC(=O)Nc1ccc(C(=N)N)cc1)c1ccc2ccccc2c1 [Example 44]
4,0.301 µM,C[C@H](NC(=O)C(C(=O)Nc1ccc(C(=N)N)cc1)c1ccccc1)c1ccc(Br)cc1 (stereo partly drawn) [Example 12]
5,0.198 µM,"CC(NC(=O)C(C(=O)Nc1ccc(C(=N)N)cc1)c1ccccc1)c1ccc([N+](=O)[O-])cc1 (stereo not drawn) [Example 3, N-(4-Carbamimidoyl-Phenyl)-N′-[1-(4-Nitro-Phenyl)-Ethyl]-2-Phenyl-Malonamide, Formiate]"
6,0.157 µM,C[C@H](NC(=O)C(C(=O)Nc1ccc(C(=N)N)cc1)c1ccccc1)c1cccc(Br)c1 (stereo partly drawn) [Example 23]
7,0.124 µM,C[C@H](NC(=O)C(C(=O)Nc1ccc(C(=N)N)cc1)c1ccccc1)c1ccc2ccccc2c1 (stereo partly drawn) [Example 43]
